Data: patent US5859026A, “Quinoline carboxylic acid” (priority 1995, dated 1999)
Values after ≈ are worked out from the molar mass of the structure shown.

How the values were obtained:
S. marcescens IAM 1184 = assay: Antibacterial activity (MIC), standard strain; assay type: cell-based; settings: Serratia marcescens, IAM1184; standard strain S. marcescens IAM 1184, Gram -, 10^6 viable cells per ml; read-out: minimum inhibitory concentration (MIC)
Excerpt: (§1) 1. Antibacterial spectrum against standard strains and clinically isolated strains

S. aureus FDA 209P JC-1 = assay: Antibacterial activity (MIC), standard strain; assay type: cell-based; settings: Staphylococcus aureus, FDA209P; standard strain S. aureus FDA 209P JC-1, Gram +, 10^6 viable cells per ml; read-out: minimum inhibitory concentration (MIC)
Excerpt: as §1

E. coli NIHJ JC-2 = assay: Antibacterial activity (MIC), standard strain; assay type: cell-based; settings: Escherichia coli, NIHJJC2; standard strain E. coli NIHJ JC-2, Gram -, 10^6 viable cells per ml; read-out: minimum inhibitory concentration (MIC)
Excerpt: as §1

K. pneumoniae PCI-602 = assay: Antibacterial activity (MIC), standard strain; assay type: cell-based; settings: Klebsiella pneumoniae, PCI602; standard strain K. pneumoniae PCI-602, Gram -, 10^6 viable cells per ml; read-out: minimum inhibitory concentration (MIC)
Excerpt: as §1

Male Hartley guinea pigs = assay: Phototoxicity; assay type: in vivo, guinea pig; settings: 10 mg/kg intravenous, UV exposure 90 minutes, observed 24 hours after irradiation
Description: Male Hartley guinea pigs were intravenously administered with test compounds at a dose of 10 mg/kg, and then immediately exposed to WVA on their backs for 90 minutes. Erythemas on the UV irradiated skin were observed 24 hours after the irradiation.

E. colacae 963 = assay: Antibacterial activity (MIC), standard strain; assay type: cell-based; settings: Enterobacter cloacae; standard strain E. colacae 963, Gram -, 10^6 viable cells per ml; read-out: minimum inhibitory concentration (MIC)
Description: as §1
Antibacterial activities (minimum inhibitory concentration: MIC) were determined according to the standard method of the Japan Society of Chemotherapy (Chemotherapy (Tokyo), 29 (1), 76, 1981) by using standard strains and strains isolated from patients of infectious disease (clinically isolated strains) and applying 10^6 viable cells per ml. […].

[1] = tested on: Chinese hamster lung cell line (CHL cell); assay: Chromosomal aberration test; assay type: cell-based; settings: 100 μg/ml, 6 hours treatment at 37° C., then 18 hours in fresh medium
Description: 2. Chromosomal aberration test
The experiments were carried out using a Chinese hamster lung cell line (CHL cell). The test compounds prepared were added to cultured cells, and cultivation was continued for 6 hours at 37° C. in 5% CO2. 2-(2-furyl)-3-(5-nitro-2-furyl) acrylamide was used as a positive control. After the cultivation for 6 hours, the cells were washed and added with fresh medium, and then cultivation was further continued for 18 hours. Colcemide solution was added to the culture 2 hours before the completion of the cultivation, and the chromosomal specimens were prepared after the cultivation was completed. Incidence rates of aberration cells were measured at the treatments with 100 μg/ml of the test compounds.

male ICR mice = assay: Induction of convulsions, intraperitoneal (i.p.) administration; assay type: in vivo, mouse; settings: 100 mg/kg i.p., 30 minutes after oral fenbufen 100 mg/kg
Excerpt: 4. The induction of convulsions
1) Intraperitoneal (i.p.) administration

A. calcoaceticus HNR916 = assay: Antibacterial activity (MIC), clinically isolated strain; assay type: cell-based; settings: Acinetobacter calcoaceticus; clinical isolate A. calcoaceticus HNR916, Gram -, 10^6 viable cells per ml; read-out: minimum inhibitory concentration (MIC)
Excerpt: as §1

K. pneumoniae HNR858 = assay: as above; assay type: cell-based; settings: Klebsiella pneumoniae; clinical isolate K. pneumoniae HNR858, Gram -, 10^6 viable cells per ml; read-out: minimum inhibitory concentration (MIC)
Excerpt: as §1

E. cloacae HNR1939 = assay: as above; assay type: cell-based; settings: Enterobacter cloacae; clinical isolate E. cloacae HNR1939, Gram -, 10^6 viable cells per ml; read-out: minimum inhibitory concentration (MIC)
Excerpt: as §1

E. cloacae HNR1946 = assay: as above; assay type: cell-based; settings: Enterobacter cloacae; clinical isolate E. cloacae HNR1946, Gram -, 10^6 viable cells per ml; read-out: minimum inhibitory concentration (MIC)
Excerpt: as §1

E. faecalis HPC984 = assay: as above; assay type: cell-based; settings: Enterococcus faecalis; clinical isolate E. faecalis HPC984, Gram +, 10^6 viable cells per ml; read-out: minimum inhibitory concentration (MIC)
Excerpt: as §1

S. marcescens HNR1544 = assay: as above; assay type: cell-based; settings: Serratia marcescens; clinical isolate S. marcescens HNR1544, Gram -, 10^6 viable cells per ml; read-out: minimum inhibitory concentration (MIC)
Excerpt: as §1

E. faecalis HPC948 = assay: as above; assay type: cell-based; settings: Enterococcus faecalis; clinical isolate E. faecalis HPC948, Gram +, 10^6 viable cells per ml; read-out: minimum inhibitory concentration (MIC)
Excerpt: as §1

E. faecalis HPC975 = assay: as above; assay type: cell-based; settings: Enterococcus faecalis; clinical isolate E. faecalis HPC975, Gram +, 10^6 viable cells per ml; read-out: minimum inhibitory concentration (MIC)
Excerpt: as §1

S. aureus HPC308 = assay: as above; assay type: cell-based; settings: Staphylococcus aureus; clinical isolate S. aureus HPC308, Gram +, 10^6 viable cells per ml; read-out: minimum inhibitory concentration (MIC)
Excerpt: as §1

S. aureus HPC527 = assay: as above; assay type: cell-based; settings: Staphylococcus aureus; clinical isolate S. aureus HPC527, Gram +, 10^6 viable cells per ml; read-out: minimum inhibitory concentration (MIC)
Excerpt: as §1

S. aureusHPC292 = assay: as above; assay type: cell-based; settings: Staphylococcus aureus; clinical isolate S. aureus HPC292, Gram +, 10^6 viable cells per ml; read-out: minimum inhibitory concentration (MIC)
Excerpt: as §1

S. marcescens HNR1792 = assay: as above; assay type: cell-based; settings: Serratia marcescens; clinical isolate S. marcescens HNR1792, Gram -, 10^6 viable cells per ml; read-out: minimum inhibitory concentration (MIC)
Excerpt: as §1

E. cloacae HNR1941 = assay: as above; assay type: cell-based; settings: Enterobacter cloacae; clinical isolate E. cloacae HNR1941, Gram -, 10^6 viable cells per ml; read-out: minimum inhibitory concentration (MIC)
Excerpt: as §1

A. calcoaceticus HNR904 = assay: as above; assay type: cell-based; settings: Acinetobacter calcoaceticus; clinical isolate A. calcoaceticus HNR904, Gram -, 10^6 viable cells per ml; read-out: minimum inhibitory concentration (MIC)
Excerpt: as §1

K. pneumoniae HNR869 = assay: as above; assay type: cell-based; settings: Klebsiella pneumoniae; clinical isolate K. pneumoniae HNR869, Gram -, 10^6 viable cells per ml; read-out: minimum inhibitory concentration (MIC)
Excerpt: as §1

S. marcescens HNR1767 = assay: as above; assay type: cell-based; settings: Serratia marcescens; clinical isolate S. marcescens HNR1767, Gram -, 10^6 viable cells per ml; read-out: minimum inhibitory concentration (MIC)
Excerpt: as §1

A. calcoaceticus HNR939 = assay: as above; assay type: cell-based; settings: Acinetobacter calcoaceticus; clinical isolate A. calcoaceticus HNR939, Gram -, 10^6 viable cells per ml; read-out: minimum inhibitory concentration (MIC)
Excerpt: as §1

K. pneumoniae HNR828 = assay: as above; assay type: cell-based; settings: Klebsiella pneumoniae; clinical isolate K. pneumoniae HNR828, Gram -, 10^6 viable cells per ml; read-out: minimum inhibitory concentration (MIC)
Excerpt: as §1

SMILES | MIC (S. marcescens IAM 1184) [mg/L] | MIC (S. aureus FDA 209P JC-1) [mg/L] | MIC (E. coli NIHJ JC-2) [mg/L] | MIC (K. pneumoniae PCI-602) [mg/L] | MIC (E. colacae 963) [mg/L] | MIC (A. calcoaceticus HNR916) [mg/L] | MIC (K. pneumoniae HNR858) [mg/L] | MIC (E. cloacae HNR1939) [mg/L] | MIC (E. cloacae HNR1946) [mg/L] | MIC (E. faecalis HPC984) [mg/L] | MIC (S. marcescens HNR1544) [mg/L] | MIC (E. faecalis HPC948) [mg/L] | MIC (E. faecalis HPC975) [mg/L] | MIC (S. aureus HPC308) [mg/L] | MIC (S. aureus HPC527) [mg/L] | MIC (S. aureusHPC292) [mg/L] | MIC (S. marcescens HNR1792) [mg/L] | MIC (E. cloacae HNR1941) [mg/L] | MIC (A. calcoaceticus HNR904) [mg/L] | MIC (K. pneumoniae HNR869) [mg/L] | also measured
Cc1c(N2C[C@@H](N)[C@@H](C)C2)c(F)c(N)c2c(=O)c(C(=O)O)cn(C3CC3)c12 [Compound 1, 5-amino-7-((3S,4S)-3-amino-4-methyl-1-pyrrolidinyl)-1-cyclopropyl-6-fluoro-1,4-dihydro-8-methyl-4-oxoquinoline-3-carboxylic acid] | 0.05 (≈ 0.134 µM) | 0.006 (≈ 0.016 µM) | 0.006 (≈ 0.016 µM) | 0.0008 (≈ 0.00214 µM) | 0.012 (≈ 0.032 µM) | 0.006 (≈ 0.016 µM) | 0.1 (≈ 0.267 µM) | 0.1 (≈ 0.267 µM) | 0.1 (≈ 0.267 µM) | 0.05 (≈ 0.134 µM) | 0.025 (≈ 0.0668 µM) | 0.1 (≈ 0.267 µM) | 0.78 (≈ 2.08 µM) | 0.2 (≈ 0.534 µM) | 0.006 (≈ 0.016 µM) | 0.78 (≈ 2.08 µM) | 1.56 (≈ 4.17 µM) | 3.13 (≈ 8.36 µM) | 1.56 (≈ 4.17 µM) | 0.78 (≈ 2.08 µM) | Phototoxicity (in words) (Male Hartley guinea pigs): induced no phototoxicity; Phototoxicity (number of guinea pigs with erythemas) (Male Hartley guinea pigs; animals with erythemas/animals tested): 0/5; incidence rate of the aberration cells [1]: less than 10%; Induction of convulsions, i.p. (in words) (male ICR mice): did not induce convulsions; Induction of convulsion, i.p. (number of mice with convulsions) (male ICR mice; animals with convulsions/animals tested): 0/6
CC[C@H]1CN(c2c(F)c(N)c3c(=O)c(C(=O)O)cn(C4CC4)c3c2C)C[C@H]1N [Compound 2, 5-amino-7-((3S,4S)-3-amino-4-ethyl-1-pyrrolidinyl)-1-cyclopropyl-6-fluoro-1,4-dihydro-8-methyl-4-oxoquinoline-3-carboxylic acid] | 0.1 (≈ 0.257 µM) | 0.006 (≈ 0.0154 µM) | 0.012 (≈ 0.0309 µM) | ≤ 0.0015 | 0.025 (≈ 0.0644 µM) | 0.012 (≈ 0.0309 µM) | 0.2 (≈ 0.515 µM) | 0.2 (≈ 0.515 µM) | 0.2 (≈ 0.515 µM) | 0.05 (≈ 0.129 µM) | 0.05 (≈ 0.129 µM) | 0.2 (≈ 0.515 µM) | 0.78 (≈ 2.01 µM) | 0.1 (≈ 0.257 µM) | 0.006 (≈ 0.0154 µM) | 0.78 (≈ 2.01 µM) | 1.56 (≈ 4.02 µM) | 6.25 (≈ 16.1 µM) | 3.13 (≈ 8.06 µM) | 1.56 (≈ 4.02 µM) | MIC (S. marcescens HNR1767): 12.5 mg/L (≈ 32.2 µM); MIC (A. calcoaceticus HNR939): 0.2 mg/L (≈ 0.515 µM); MIC (K. pneumoniae HNR828): 3.13 mg/L (≈ 8.06 µM)
